Values of other authors, collected in PMC3138524 (European journal of pharmacology, 2011).
pEC50, pIC50: −log10 of the molar value. Positions of bridges follow the written chain, without caps; N, C: chain ends. Non-standard residues stand in square brackets, D forms with d. d2Nal = N[C@H](Cc1ccc2ccccc2c1)C(=O)O; Pen = CC(C)(S)[C@H](N)C(=O)O; Nle = CCCC[C@H](N)C(=O)O

Experiments:
Format in all cases: cell-based, HEK293
[1] = biological target: T1, MC5R (Homo sapiens, UniProt P33032); settings: read-out: Functional Assays cAMP EC50; n = 2
[2] = biological target: T2, MC4R (Homo sapiens, UniProt P32245); settings: read-out: Functional Assays cAMP EC50; n = 2
[3] = biological target: T3, MC3R (Homo sapiens, UniProt P41968); settings: read-out: Binding Affinities IC50; n = 2
[4] = biological target: T2, MC4R; settings: read-out: Binding Affinities IC50; n = 2
[5] = biological target: T3, MC3R; settings: read-out: Functional Assays cAMP EC50; n = 2
[6] = biological target: T1, MC5R; settings: read-out: Binding Affinities IC50; n = 2

T2 sequence (P32245 whole entry): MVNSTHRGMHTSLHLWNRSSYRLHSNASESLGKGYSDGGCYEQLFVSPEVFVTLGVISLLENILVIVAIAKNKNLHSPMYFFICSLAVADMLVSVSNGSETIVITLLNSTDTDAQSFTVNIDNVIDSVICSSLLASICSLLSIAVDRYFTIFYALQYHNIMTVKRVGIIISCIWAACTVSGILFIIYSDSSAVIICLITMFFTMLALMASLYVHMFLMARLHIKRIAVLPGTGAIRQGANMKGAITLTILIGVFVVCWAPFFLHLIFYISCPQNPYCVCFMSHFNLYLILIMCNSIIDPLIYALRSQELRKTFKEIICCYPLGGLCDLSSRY
T1 sequence (P33032 whole entry): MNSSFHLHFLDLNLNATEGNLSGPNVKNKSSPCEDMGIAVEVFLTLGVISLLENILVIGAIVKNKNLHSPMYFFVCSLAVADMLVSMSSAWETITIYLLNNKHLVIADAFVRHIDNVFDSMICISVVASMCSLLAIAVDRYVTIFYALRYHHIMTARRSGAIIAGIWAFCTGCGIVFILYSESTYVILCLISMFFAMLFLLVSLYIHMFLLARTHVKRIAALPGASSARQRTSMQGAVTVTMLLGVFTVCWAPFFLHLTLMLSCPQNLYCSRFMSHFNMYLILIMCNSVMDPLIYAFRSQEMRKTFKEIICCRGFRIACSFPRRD
T3 sequence (P41968 whole entry): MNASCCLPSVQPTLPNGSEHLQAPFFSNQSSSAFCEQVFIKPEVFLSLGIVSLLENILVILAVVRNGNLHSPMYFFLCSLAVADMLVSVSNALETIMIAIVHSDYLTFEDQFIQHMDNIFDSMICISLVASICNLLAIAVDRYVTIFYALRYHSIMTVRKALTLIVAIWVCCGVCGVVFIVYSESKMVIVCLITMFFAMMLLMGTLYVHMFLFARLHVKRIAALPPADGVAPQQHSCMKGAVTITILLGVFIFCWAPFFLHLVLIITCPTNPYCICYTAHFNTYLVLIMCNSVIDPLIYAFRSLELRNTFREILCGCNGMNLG

pEC50 [1]	pEC50 [2]	pIC50 [3]	pIC50 [4]	Molecule	further results
< 6.00	< 5.00			N=C(N)NCCC[C@@H]1NC(=O)[C@@H](Cc2ccccc2)NC(=O)[C@@H]2CCCN2C(=O)[C@@H](NC(=O)[C@H](N)Cc2ccccc2)CC(=O)NCCCC[C@@H](C(N)=O)NC(=O)[C@H](Cc2c[nH]c3ccccc23)NC1=O [compound 3, D-Phe-c[Asp-Pro-D-Phe-Arg-Trp-Lys]-NH2]	
		8.52		Ac-[Nle][Pen]EH[d2Nal]RWCPKD-NH2 (disulfide 2-8) [compound 5]	
< 5.00		9.08		Tyr-Val-Nle-Gly-His-D-Nal(2′)-Arg-Trp-Asp-Arg-Phe-Gly-NH2 [compound 1]	pEC50 [5]: < 5.00; pIC50 [6]: 9.00

Further lines, the molecule ahead of its results:

Molecule	pEC50 [1]	pEC50 [2]	pIC50 [3]	pIC50 [4]	further results
Ac-Nle-c[Asp-Aba-D-Phe-Arg-Trp-Lys]-NH2 [compound 4]			7.30		
Ac-c[Cys-His-D-Phe-Cys]-N^α-Gubu-D-Trp-NH2 [compound 7]		< 6.00		9.15	
Ac-c[Cys-His-D-Phe-N^α-Gubu-Cys]-Trp-NH2 [compound 6]				8.74	
